According to publication PMC8213057, “Targeting ALK2: An Open Science Approach to Developing Therapeutics for the Treatment of Diffuse Intrinsic Pontine Glioma” (Journal of Medicinal Chemistry, 2020):
Values joined by “and” are separate entries in the source; they are usually repeats but may differ in a detail not shown here. Identical values can stand only once.

What was measured:
IRAK4 = target: T1, IRAK4 (Homo sapiens, UniProt Q9NWZ3); conditions: 1 μM; Run 1, Run 2
T1 sequence (Q9NWZ3 1-460): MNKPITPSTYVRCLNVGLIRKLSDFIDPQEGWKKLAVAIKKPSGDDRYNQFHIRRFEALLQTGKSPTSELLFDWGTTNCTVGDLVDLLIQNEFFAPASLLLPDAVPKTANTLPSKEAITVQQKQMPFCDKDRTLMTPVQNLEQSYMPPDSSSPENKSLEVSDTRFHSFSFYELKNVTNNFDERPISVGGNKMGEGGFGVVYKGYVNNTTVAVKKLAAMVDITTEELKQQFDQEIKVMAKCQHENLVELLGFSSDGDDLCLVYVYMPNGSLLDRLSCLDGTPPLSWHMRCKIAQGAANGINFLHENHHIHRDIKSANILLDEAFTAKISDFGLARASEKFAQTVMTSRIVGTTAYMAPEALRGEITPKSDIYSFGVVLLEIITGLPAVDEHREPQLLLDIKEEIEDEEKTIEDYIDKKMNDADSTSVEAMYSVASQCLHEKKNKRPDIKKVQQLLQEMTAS

CK1G3 = CK1G3 (Homo sapiens, UniProt Q9Y6M4); test: biochemical; conditions: read-out: % enzyme activity, 1 μM; Run 1, Run 2
Sequence of CK1G3 (Q9Y6M4 whole entry): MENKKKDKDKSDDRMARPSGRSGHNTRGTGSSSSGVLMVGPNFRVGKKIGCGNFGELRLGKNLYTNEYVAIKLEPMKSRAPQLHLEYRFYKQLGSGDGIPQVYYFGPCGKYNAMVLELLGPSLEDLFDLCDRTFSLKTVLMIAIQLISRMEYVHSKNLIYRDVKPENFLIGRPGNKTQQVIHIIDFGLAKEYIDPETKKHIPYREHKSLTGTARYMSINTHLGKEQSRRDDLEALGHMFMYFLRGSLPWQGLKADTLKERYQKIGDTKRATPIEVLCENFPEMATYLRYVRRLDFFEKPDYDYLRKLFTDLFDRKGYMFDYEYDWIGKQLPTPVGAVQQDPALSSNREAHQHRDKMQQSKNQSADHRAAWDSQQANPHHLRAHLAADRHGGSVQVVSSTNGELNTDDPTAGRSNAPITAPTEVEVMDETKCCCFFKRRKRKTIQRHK

HIPK2 = HIPK2 (Homo sapiens, UniProt Q9H2X6); test: biochemical; conditions: read-out: % enzyme activity, 1 μM; Run 1, Run 2
Sequence of HIPK2 (Q9H2X6 whole entry): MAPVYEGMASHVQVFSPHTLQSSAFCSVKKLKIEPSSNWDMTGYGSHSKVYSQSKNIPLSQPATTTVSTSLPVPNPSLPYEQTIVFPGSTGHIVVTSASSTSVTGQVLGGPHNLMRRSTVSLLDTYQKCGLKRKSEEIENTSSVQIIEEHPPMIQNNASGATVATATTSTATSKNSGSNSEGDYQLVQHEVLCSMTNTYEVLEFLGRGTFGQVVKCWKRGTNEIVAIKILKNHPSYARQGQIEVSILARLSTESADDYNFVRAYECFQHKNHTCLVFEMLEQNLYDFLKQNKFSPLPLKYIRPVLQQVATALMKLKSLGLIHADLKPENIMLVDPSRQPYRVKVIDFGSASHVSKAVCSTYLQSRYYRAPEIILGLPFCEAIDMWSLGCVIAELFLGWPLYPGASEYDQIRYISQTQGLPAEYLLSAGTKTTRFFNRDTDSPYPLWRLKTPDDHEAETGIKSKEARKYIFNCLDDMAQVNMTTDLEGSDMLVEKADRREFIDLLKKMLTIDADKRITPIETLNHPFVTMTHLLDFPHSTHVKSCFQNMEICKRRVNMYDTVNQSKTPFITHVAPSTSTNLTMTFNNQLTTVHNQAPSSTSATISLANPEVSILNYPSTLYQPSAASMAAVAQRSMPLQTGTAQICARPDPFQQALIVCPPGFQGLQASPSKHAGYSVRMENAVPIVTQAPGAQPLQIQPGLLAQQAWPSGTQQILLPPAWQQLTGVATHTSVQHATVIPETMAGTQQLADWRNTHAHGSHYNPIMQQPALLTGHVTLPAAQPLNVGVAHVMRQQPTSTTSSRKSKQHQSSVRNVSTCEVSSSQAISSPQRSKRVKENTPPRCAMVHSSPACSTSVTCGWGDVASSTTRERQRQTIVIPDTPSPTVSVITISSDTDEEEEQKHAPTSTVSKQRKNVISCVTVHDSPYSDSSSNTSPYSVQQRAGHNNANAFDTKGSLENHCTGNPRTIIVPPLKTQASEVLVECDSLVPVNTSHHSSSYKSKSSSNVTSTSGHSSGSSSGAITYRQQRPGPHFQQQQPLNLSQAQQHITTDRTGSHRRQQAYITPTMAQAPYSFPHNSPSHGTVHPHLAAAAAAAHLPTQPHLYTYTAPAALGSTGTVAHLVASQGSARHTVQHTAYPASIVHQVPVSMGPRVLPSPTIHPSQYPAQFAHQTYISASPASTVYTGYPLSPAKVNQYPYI

FES/FPS = FES/FPS (Homo sapiens, UniProt P07332); test: biochemical; conditions: read-out: % enzyme activity, 1 μM; Run 1, Run 2
Sequence of FES/FPS (P07332 whole entry): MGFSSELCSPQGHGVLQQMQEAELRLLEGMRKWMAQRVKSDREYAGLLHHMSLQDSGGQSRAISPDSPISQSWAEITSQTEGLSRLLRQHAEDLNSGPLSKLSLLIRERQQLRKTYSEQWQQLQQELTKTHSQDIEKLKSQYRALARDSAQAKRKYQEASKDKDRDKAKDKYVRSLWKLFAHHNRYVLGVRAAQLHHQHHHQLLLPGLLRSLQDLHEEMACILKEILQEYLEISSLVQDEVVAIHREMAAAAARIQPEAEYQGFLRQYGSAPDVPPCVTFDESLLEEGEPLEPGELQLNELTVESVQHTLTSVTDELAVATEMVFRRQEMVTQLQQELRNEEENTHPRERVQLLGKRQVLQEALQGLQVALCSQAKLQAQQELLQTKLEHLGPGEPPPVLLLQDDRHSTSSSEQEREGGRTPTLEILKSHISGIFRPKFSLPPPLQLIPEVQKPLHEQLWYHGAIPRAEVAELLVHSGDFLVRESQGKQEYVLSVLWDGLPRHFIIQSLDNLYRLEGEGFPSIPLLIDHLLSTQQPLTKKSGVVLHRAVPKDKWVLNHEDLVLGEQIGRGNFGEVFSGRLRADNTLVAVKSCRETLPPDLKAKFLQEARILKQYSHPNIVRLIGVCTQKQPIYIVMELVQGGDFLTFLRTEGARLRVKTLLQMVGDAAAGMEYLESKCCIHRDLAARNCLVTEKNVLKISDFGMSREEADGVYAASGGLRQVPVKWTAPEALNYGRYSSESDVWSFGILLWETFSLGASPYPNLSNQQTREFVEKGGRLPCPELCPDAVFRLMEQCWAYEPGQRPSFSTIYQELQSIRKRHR

CK1d = CK1d (Homo sapiens, UniProt P48730); test: biochemical; conditions: read-out: % enzyme activity, 1 μM; Run 1, Run 2
Sequence of CK1d (P48730 whole entry): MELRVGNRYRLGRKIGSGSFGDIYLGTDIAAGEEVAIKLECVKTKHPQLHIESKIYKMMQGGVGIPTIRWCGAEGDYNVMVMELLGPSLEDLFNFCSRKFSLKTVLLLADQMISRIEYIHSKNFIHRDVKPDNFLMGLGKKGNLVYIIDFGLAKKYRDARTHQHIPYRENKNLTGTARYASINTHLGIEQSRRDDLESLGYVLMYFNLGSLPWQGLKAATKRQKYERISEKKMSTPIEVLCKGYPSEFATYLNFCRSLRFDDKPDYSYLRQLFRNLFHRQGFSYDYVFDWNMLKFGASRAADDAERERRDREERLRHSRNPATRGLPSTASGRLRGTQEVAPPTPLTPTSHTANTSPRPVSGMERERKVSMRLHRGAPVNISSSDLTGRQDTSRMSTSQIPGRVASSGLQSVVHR

CAMK2a = CAMK2a (Homo sapiens, UniProt Q9UQM7); conditions: 1 μM; Run 1, Run 2
Sequence of CAMK2a (Q9UQM7 whole entry): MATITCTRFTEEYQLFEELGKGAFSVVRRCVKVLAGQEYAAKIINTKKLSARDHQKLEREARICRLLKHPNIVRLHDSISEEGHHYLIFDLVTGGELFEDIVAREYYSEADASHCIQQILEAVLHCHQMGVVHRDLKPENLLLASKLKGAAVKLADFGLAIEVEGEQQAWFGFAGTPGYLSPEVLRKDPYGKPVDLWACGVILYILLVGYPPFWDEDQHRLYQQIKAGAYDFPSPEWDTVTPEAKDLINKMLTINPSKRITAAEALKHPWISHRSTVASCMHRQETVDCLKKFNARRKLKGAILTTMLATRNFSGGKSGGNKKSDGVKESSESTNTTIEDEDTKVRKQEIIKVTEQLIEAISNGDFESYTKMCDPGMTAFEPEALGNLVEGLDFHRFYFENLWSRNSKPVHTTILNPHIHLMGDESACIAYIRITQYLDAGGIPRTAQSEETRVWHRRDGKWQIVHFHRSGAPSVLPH

NEK9 = target: T2, NEK9 (Homo sapiens, UniProt Q8TD19); test: biochemical; conditions: read-out: % enzyme activity, 1 μM; Run 1, Run 2
T2 sequence (Q8TD19 1-979): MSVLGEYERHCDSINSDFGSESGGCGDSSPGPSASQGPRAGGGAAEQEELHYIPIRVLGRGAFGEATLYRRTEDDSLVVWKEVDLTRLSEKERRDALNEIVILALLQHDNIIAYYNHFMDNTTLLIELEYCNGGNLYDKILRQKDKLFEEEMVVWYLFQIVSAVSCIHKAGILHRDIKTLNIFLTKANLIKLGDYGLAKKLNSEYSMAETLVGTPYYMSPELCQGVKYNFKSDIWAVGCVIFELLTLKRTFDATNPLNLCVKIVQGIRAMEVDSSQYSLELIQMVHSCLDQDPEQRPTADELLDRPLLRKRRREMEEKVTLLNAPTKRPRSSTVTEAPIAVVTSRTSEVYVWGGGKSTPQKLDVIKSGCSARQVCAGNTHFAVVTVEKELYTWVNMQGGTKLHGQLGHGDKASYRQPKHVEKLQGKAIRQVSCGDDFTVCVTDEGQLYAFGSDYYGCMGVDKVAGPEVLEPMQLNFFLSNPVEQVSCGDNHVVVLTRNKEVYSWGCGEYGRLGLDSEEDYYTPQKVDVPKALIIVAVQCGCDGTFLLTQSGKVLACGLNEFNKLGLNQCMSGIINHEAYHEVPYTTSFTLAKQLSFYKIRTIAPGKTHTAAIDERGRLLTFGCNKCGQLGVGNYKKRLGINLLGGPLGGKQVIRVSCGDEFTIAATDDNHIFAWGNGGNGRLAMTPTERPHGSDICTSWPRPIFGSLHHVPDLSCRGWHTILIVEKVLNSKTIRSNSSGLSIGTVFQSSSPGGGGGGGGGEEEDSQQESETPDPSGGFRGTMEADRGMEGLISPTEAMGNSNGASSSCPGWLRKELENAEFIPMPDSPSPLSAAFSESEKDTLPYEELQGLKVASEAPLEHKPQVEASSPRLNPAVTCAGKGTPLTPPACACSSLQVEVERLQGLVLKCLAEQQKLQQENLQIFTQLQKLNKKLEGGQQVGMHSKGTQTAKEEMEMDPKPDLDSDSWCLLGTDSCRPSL

CYP2D6 = target: T3, CYP2D6 (Homo sapiens, UniProt P10635); test: CYP inhibition assay; format: in vitro ADME; conditions: human liver microsomes
T3 construct: tissue Corning 452117; host or cells: pooled human liver microsomes (UltraPool HLM 150, mixed gender)
T3 sequence (P10635 whole entry): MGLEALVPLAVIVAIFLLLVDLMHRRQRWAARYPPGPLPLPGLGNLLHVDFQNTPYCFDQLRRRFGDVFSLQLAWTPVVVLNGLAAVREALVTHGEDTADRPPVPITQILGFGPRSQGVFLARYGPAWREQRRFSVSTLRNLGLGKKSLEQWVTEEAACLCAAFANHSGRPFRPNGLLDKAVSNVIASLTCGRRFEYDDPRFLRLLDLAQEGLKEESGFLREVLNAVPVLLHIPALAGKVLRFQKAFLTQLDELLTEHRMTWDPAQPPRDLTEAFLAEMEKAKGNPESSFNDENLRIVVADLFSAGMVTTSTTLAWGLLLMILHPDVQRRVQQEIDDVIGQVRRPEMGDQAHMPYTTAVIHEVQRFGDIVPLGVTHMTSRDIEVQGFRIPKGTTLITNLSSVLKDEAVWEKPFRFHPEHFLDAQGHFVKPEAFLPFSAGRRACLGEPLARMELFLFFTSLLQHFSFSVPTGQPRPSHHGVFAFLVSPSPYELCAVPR

CK2a = CK2a (Homo sapiens, UniProt P68400); conditions: 1 μM; Run 1, Run 2
Sequence of CK2a (P68400 whole entry): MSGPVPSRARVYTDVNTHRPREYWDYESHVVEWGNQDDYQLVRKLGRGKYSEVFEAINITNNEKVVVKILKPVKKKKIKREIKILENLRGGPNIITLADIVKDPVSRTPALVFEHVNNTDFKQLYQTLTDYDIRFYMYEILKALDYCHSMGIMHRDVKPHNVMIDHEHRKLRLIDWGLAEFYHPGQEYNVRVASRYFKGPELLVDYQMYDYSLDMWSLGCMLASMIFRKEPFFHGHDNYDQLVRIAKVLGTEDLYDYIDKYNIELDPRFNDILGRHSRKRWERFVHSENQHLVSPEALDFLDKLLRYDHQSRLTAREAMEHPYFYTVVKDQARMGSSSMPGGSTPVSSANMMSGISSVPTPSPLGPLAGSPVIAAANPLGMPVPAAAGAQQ

TESK2 = TESK2 (Homo sapiens, UniProt Q96S53); test: biochemical; conditions: read-out: % enzyme activity, 1 μM; Run 1, Run 2
CDK5/P25 = CDK5/P25 (Homo sapiens, UniProt Q00535); conditions: 1 μM; Run 1, Run 2
Sequence of CDK5/P25 (Q00535 whole entry): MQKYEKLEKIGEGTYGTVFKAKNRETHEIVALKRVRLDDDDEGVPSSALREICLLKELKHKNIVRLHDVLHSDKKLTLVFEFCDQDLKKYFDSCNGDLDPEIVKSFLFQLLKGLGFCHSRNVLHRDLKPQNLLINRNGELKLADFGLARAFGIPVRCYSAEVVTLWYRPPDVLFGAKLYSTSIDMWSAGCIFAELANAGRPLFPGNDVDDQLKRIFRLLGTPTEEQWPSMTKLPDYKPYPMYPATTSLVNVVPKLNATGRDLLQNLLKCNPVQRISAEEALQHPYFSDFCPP
Sequence of CDK5/P25 (Q15078 99-307 partner limits assumed): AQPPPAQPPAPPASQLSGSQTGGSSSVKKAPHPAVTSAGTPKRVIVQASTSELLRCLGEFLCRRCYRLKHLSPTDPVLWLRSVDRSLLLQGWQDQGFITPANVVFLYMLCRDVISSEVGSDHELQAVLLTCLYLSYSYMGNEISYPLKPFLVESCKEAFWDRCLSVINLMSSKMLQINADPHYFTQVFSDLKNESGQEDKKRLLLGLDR

PKG2/PRKG2 = target: T4, PKG2/PRKG2 (Homo sapiens, UniProt Q13237); test: biochemical; conditions: read-out: % enzyme activity, 1 μM; Run 1, Run 2
T4 sequence (Q13237 1-762): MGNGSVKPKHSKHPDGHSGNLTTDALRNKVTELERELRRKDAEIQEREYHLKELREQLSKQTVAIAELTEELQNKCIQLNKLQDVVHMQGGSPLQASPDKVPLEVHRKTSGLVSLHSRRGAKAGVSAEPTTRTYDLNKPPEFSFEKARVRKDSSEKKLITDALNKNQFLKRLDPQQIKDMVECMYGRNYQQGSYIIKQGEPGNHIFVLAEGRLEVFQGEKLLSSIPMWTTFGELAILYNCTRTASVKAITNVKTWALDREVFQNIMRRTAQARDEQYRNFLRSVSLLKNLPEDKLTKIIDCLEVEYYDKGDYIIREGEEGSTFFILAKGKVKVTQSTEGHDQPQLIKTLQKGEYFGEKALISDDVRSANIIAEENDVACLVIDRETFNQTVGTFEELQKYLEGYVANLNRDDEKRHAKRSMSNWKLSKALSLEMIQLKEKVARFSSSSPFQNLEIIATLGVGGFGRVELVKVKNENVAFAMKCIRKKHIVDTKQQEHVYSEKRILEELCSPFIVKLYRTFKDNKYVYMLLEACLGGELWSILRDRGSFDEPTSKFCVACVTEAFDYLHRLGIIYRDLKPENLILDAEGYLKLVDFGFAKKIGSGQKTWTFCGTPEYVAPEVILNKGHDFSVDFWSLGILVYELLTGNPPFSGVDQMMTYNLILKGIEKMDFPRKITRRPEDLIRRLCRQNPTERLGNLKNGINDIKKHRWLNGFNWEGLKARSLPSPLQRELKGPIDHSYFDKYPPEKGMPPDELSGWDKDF

In the case of COc1cc(-c2cncc(-c3ccc(N4CCN(C)CC4)cc3)c2C)cc(F)c1C(N)=O [Compound 26a, 2-Fluoro-6-methoxy-4-(4-methyl-5-(4-(4-methylpiperazin-1-yl)phenyl)pyridin-3-yl)benzamide], the % enzyme activity at 1 μM (ALK4/ACVR1B) is reported as 68.8%, the “% enzyme activity” value (IRAK4) is reported as 82.71% and the CYP inhibition (CYP3A4-Midazolam) is reported as > 50 µM. For the same compound, the remaining activity at 1 µM (CK1G3) was 65.9%, the remaining activity at 1 µM (HIPK2) was 99.8% and the remaining activity at 1 µM (FES/FPS) was 99.9%. The remaining activity at 1 µM (CK1d) was 98.1%, the “% enzyme activity” value (CAMK2a) was 83.69% and the remaining activity at 1 µM (NEK9) was 91.2%. The IC50 (CYP2D6) was > 50 µM, the “% enzyme activity” value (CK2a) was 91.32% and the remaining activity at 1 µM (TESK2) was 93.9%. The “% enzyme activity” value (CDK5/P25) was 91.77% and the remaining activity at 1 µM (PKG2/PRKG2) was 98.9%.

For COc1cc(-c2cncc(-c3ccc(N4C[C@@H](C)N(C)[C@@H](C)C4)cc3)c2C)cc(F)c1C(N)=O [Compound 26c, 2-Fluoro-6-methoxy-4-(4-methyl-5-(4-((3R,5S)-3,4,5-trimethylpiperazin-1-yl)phenyl)pyridin-3-yl)benzamide], the % enzyme activity at 1 μM (ALK4/ACVR1B) was 82.4% and 81.7%, the “% enzyme activity” value (IRAK4) was 88.61% and the CYP inhibition (CYP3A4-Midazolam) was > 50 µM. The remaining activity at 1 µM (CK1G3) was 78.8%, the remaining activity at 1 µM (HIPK2) was 103% and the remaining activity at 1 µM (FES/FPS) was 98.7%. The remaining activity at 1 µM (CK1d) was 108%, the “% enzyme activity” value (CAMK2a) was 93.72% and the remaining activity at 1 µM (NEK9) was 91.6%. The IC50 (CYP2D6) was > 50 µM, the “% enzyme activity” value (CK2a) was 86.32% and the remaining activity at 1 µM (TESK2) was 92.2%. The “% enzyme activity” value (CDK5/P25) was 94.09% and the remaining activity at 1 µM (PKG2/PRKG2) was 98.5%.
